Measurements published in patent US20200222400A1, “METHODS FOR THE TREATMENT OF NEUROLOGICAL DISORDERS” (Yumanity Therapeutics, Inc., priority 2019, published 2020).

How the values were obtained:
human SCD1 = target: T1, human SCD1 (Homo sapiens, UniProt O00767); test: Growth of humanized yeast expressing human SCD1 as sole desaturase; type: cell-based, humanized yeastized yeastized yeastized yeast; conditions: yeast growth
T1 construct: host or cells: S. cerevisiae ole1Δ strain (W303 pdr1Δ pdr3Δ background), pRS316 plasmid, TDH3 promoter
T1 sequence (O00767 1-359): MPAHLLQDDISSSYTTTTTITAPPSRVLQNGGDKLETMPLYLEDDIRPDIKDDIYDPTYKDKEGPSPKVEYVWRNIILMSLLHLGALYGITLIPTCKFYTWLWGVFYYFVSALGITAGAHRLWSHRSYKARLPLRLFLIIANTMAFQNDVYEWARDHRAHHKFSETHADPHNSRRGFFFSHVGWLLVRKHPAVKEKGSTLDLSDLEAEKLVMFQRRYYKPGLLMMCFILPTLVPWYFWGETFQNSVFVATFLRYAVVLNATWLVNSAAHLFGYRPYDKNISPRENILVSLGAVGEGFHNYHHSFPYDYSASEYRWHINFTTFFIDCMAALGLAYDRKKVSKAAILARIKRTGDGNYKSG
Method: The coding sequence of yeast OLE1 was also cloned into this plasmid). These clones were then transformed into the ole1Δ strain and plated on CSM-Ura media (CSM lacking uracil) with 2% glucose (w/v) and independent colonies were isolated and amplified.
All compound profiling experiments were performed using the same basic protocol. Different genetic backgrounds (e.g., gene deletions) or conditions (e.g., addition of oleic and palmitoleic acid) were replaced as indicated below.
Compound administration was performed in two separate steps. First, 15 μL of CSM-Galactose (induces expression of toxic protein) was dispensed into clear 384 well assay plates using a MULTIDROP™ Combi reagent dispenser. […] The cultures described above were then diluted to a 2× concentration (0.03 and 0.08 for alpha-synuclein and ApoE, final OD600 of 0.015 and 0.04) in CSM-Galactose. For wild-type and Ole1/SCD1/SCD5 plasmid-containing strains, the 2× cell density was 0.02.
For experiments using a plasmid-borne copy of Ole1, SCD1, or SCD5 (FIGS. 4B, 7, and 8), media lacking uracil (SX-Ura, where X is glucose, raffinose, or galactose), was used for all steps of the compound profiling protocol to ensure its maintenance throughout the assay.
After yeast delivery, assay plates were incubated under humidified conditions at 30° C. for 24 to 40 h. ApoE4 rescue experiments were stopped at 24 h, aSyn experiments at 40 h, Ole1 at 24 h, and SCD1/SCD5 at 40 h. The growth of yeast was monitored by reading the OD600 of each well using a microplate reader (Perkin Elmer EnVision™).

[1] = tested on: human iPSC-derived neurons harboring the alpha-synuclein A53T mutation; test: Neuron survival assay, iPSC-derived neurons harboring alpha-synuclein A53T mutation; type: cell-based; conditions: 100 nM and 30 nM, relative to DMSO in A53T neurons
Method: Human control and patient-derived trans-differentiated neurons were transfected with an RFP reporter driven by the human MAP2 promoter (MAP2-mApple) following the protocol for rat primary neurons as described above with the following exceptions: lipofection was carried out for approximately 1 h, and the final media replacement was with BrainPhys™ media supplemented with BDNF, GNDF, cAMP, ascorbic acid, and laminin.
Transfected neuronal cultures were imaged at 12-24 h intervals for the indicated number of days by robotic microscopy. Fluorescence images were acquired with a Nikon Eclipse Ti microscope equipped with a motorized stage, 20× extra-long working distance (ELWD) objective, and an Andor Zyla cMOS camera. During image acquisition, microplates were enclosed in an on-stage environmental chamber controlling temperature, CO2, and humidity (Okolab). Images were processed and analyzed with custom-made scripts in R and ImageJ software. The lifetimes of individual neurons were determined by tracking fluorescently-labeled neurons in ImageJ. Neuronal death was determined to occur upon incidence of RFP signal loss or rupture of cell body. Cox proportional hazards analysis was used to generate cumulative hazard plots and determine the risk of neuron death. Log-rank test was used to determine statistical significance of survival curve divergence between neuron cohorts.

[2] = tested on: rat cortical neurons transfected with alpha-synuclein A53T; test: Neurite degeneration assay; type: cell-based
Method: Rat primary cortical neurons cultured in 96-well plates (Greiner Bio-One) were co-transfected with a fluorescence reporter plasmid (encoding mKate2) and empty or alpha-synuclein-A53T overexpression plasmids by lipofection at 5-6 div (days in vitro). LIPOFECTAMINE® 2000 transfection reagent (Thermo Fisher) (0.5 μl/well) was diluted in NEUROBASAL® media (Thermo Fisher) and incubated for 5-10 min. The LIPOFECTAMINE®/NEUROBASAL® mixture was then added dropwise to a plasmid cocktail diluted in NEUROBASAL® media, and incubated for approximately 40 min. During this time, conditioned media on the neurons was replaced with media containing 1× kynurenic Acid (Sigma-Aldrich) in NEUROBASAL® media (NBKY). LIPOFECTAMINE®/DNA complex solutions were subsequently added dropwise to neurons in the NBKY media in the 96-well plate. Lipofection was carried out for 30-40 min in a standard cell culture incubator (37° C., 5% CO2). Neurons were then washed with NEUROBASAL® media, and 50% conditioned/50% fresh NEUROBASAL® media containing B-27 supplement and GlutaMax™ (Thermo Fisher) (NBM) was applied to the cultures.
Transfected rat cortical neuron cultures were treated with DMSO or CAY10566 compound 4-6 h post-transfection. […] Neurite lengths of transfected neurons were tracked by an RFP reporter, mKate2, and measured by NeuroTrack™ Software Module (Essen Bioscience). […]

Which results are given for `Cc1nnc(-c2ccc(N3CCC(Oc4cc(F)ccc4Cl)CC3)nn2)o1` [CAY10566]?
half-maximal inhibitory concentration (IC50), SCD1 humanized strain (human SCD1): low nanomolar; risk of neuron death [1]: significantly reduced; neurite degeneration at highest concentrations ([2]; 10 nM and 3 nM): complete rescue; neurite degeneration ([2]; titration, tracked every 6 h for 7 d, relative to DMSO): concentration-dependent decrease in neurite degeneration
